Data published in patent US8853282B1, “Topical liquid insecticide compositions” (priority 2014, dated 2014).
Converted amounts (≈) assume the structure as drawn.

Key:
fleas = conditions: cited from earlier work
felines = conditions: cited from earlier work
[1] = Solubility in aprotic polar solvents; type: physicochemical
Description: Dinotefuran is a hydrophilic compound that will dissolve in water (approx. 40 g/L). While dinotefuran is most preferred, nitenpyram is highly hydrophilic and could be used in formulations where higher levels of neo-nicotinoid would be desirable. The ether pyrethroid etofenprox will dissolve in some aprotic polar solvents to provide up to 40-60 weight percent while most ester pyrethroids had little solubility. Other ether pyrethroids may be useful provided they have insecticidal activity and may be desirable because of cost and relatively low hydrophobicity.

[2] = cited from earlier work
ticks = conditions: cited from earlier work

## CCOc1ccc(C(C)(C)COCc2cccc(Oc3ccccc3)c2)cc1 [Etofenprox]
fleas
  kill of fleas: will kill both fleas and ticks
felines
  toxicity to felines: not toxic to felines
[1]
  dissolves in some aprotic polar solvents: 40-60 weight percent
[2]
  solubility in water: 0.001 mg/mL (≈ 2.66 µM)
ticks
  kill of ticks: will kill both fleas and ticks

## CCN(Cc1ccc(Cl)nc1)/C(=C/[N+](=O)[O-])NC [Nitenpyram]
[2]
  Water Solubility: 840 mg/mL

## C/C(=N\C#N)N(C)Cc1ccc(Cl)nc1 [Acetamiprid]
[2]
  Water Solubility: 2.95 mg/mL

## CN/C(=N/CC1CCOC1)N[N+](=O)[O-] (centres unmarked) [Dinotefuran]
fleas
  kill of fleas: will kill fleas
[2]
  Water Solubility: 39.83 mg/mL
  dissolve in water: approx. 40 g/L
ticks
  kill of ticks: not ticks
